Data reported in patent US9409884B2 (Rigel Pharmaceuticals, Inc., priority 2012, dated 2016).

biological target: AMPK; assay: AMPK activation, enzyme-linked immunosorbent assay; format: biochemical; conditions: Table 12, compounds of Table 5
In short: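 Read-out: ELISA, used to detect compound-driven activation of AMPK.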

Row | EC50 [nM] | SMILES
1 | 1000 to 10000 | O=C(NCCCN1CCOCC1)c1ccc(OC2CCN(Cc3ccc(Cl)cc3)CC2)cc1 [Compound 5-100, 4-(1-(4-chlorobenzyl)piperidin-4-yloxy)-N-(3-morpholinopropyl)benzamide]
2 | 10000 to 20000 | COc1ccc(CN2CCC(Oc3ccc(C(=O)NCCCN4CCOCC4)cc3Cl)CC2)cc1 [Compound 5-101, 3-chloro-4-(1-(4-methoxybenzyl)piperidin-4-yloxy)-N-(3-morpholinopropyl)benzamide]
3 | 10000 to 20000 | CC(C)(C)OC(=O)NCCCNC(=O)c1ccc(OC2CCN(Cc3ccccc3)CC2)c(Cl)c1 [Compound 5-102, tert-butyl 3-(4-(1-benzylpiperidin-4-yloxy)-3-chlorobenzamido) propylcarbamate]
4 | 20000 to 50000 | O=C(c1ccc(OC2CCN(Cc3ccccc3)CC2)cc1)N1CCN(c2ccccc2)CC1 [Compound 5-103, (4-(1-benzylpiperidin-4-yloxy)phenyl)(4-phenylpiperazin-l-yl)methanone]
5 | 10000 to 20000 | Cc1ccc(CN2CCC(Oc3ccc(C(=O)NCCCN4CCOCC4)cc3)CC2)cc1 [Compound 5-104, 4-(1-(4-methylbenzyl)piperidin-4-yloxy)-N-(3-morpholinopropyl)benzamide]
6 | 10000 to 20000 | O=C(c1ccc(OC2CCN(Cc3ccccc3)CC2)cc1)N1CCN(Cc2ccccn2)CC1 [Compound 5-105, (4-(1-benzylpiperidin-4-yloxy)phenyl)(4-(pyridin-2-ylmethyl)piperazin-1-yl)methanone]
7 | < 1000 | COc1ccc(CN2CCC(NC(=O)c3cccc(OC4CCN(Cc5ccc(-c6ccccn6)cc5)CC4)c3)CC2)cc1 [Compound 5-106, N-(1-(4-methoxybenzyl)piperidin-4-yl)-3-(1-(4-(pyridin-2-yl)benzyl)piperidin-4-yloxy)benzamide]
8 | < 1000 | COc1ccc(CN2CCC(NC(=O)c3cccc(OC4CCN(Cc5ccc(OC)cc5)CC4)c3)CC2)cc1 [Compound 5-107, N-(1-(4-methoxybenzyl)piperidin-4-yl)-3-(1-(4-methoxybenzyl)piperidin-4-yloxy)benzamide]
9 | < 1000 | COc1ccc(CN2CCC(NC(=O)c3cccc(OC4CCN(Cc5ccc(C(F)(F)F)cc5)CC4)c3)CC2)cc1 [Compound 5-108, N-(1-(4-methoxybenzyl)piperidin-4-yl)-3-(1-(4-(trifluoromethyl)benzyl)piperidin-4-yloxy)benzamide]
10 | < 1000 | COc1ccc(CN2CCC(NC(=O)c3cccc(OC4CCN(Cc5ccc(N6CCOCC6)cc5)CC4)c3)CC2)cc1 [Compound 5-109, N-(1-(4-methoxybenzyl)piperidin-4-yl)-3-(1-(4-morpholinobenzyl)piperidin-4-yloxy)benzamide]
11 | < 1000 | COc1ccc(CN2CCC(NC(=O)c3cccc(OC4CCN(CC5CCN(c6ccccc6)CC5)CC4)c3)CC2)cc1 [Compound 5-110, N-(1-(4-methoxybenzyl)piperidin-4-yl)-3-(1-((1-phenylpiperidin-4-yl)methyl)piperidin-4-yloxy)benzamide]
12 | < 1000 | COc1ccc(CN2CCC(NC(=O)c3cccc(OC4CCN(Cc5cnn(-c6ccc(F)cc6)c5)CC4)c3)CC2)cc1 [Compound 5-111, 3-(1-((1-(4-fluorophenyl)-1H-pyrazol-4-yl)methyl)piperidin-4-yloxy)-N-(1-(4-methoxybenzyl)piperidin-4-yl)benzamide]
13 | 1000 to 10000 | COC(=O)c1ccc(CN2CCC(Oc3cccc(C(=O)NC4CCN(Cc5ccc(OC)cc5)CC4)c3)CC2)cc1 [Compound 5-112, methyl 4-((4-(3-(l-(4-methoxybenzyl)piperidin-4-ylcarbamoyl)phenoxy)piperidin-1-yl)methyl)benzoate]
14 | < 1000 | COc1ccc(CN2CCC(NC(=O)c3cccc(OC4CCN(Cc5ccc(Oc6ccc(C#N)cc6)cc5)CC4)c3)CC2)cc1 [Compound 5-113, 3-(1-(4-(4-cyanophenoxy)benzyl)piperidin-4-yloxy)-N-(1-(4-methoxybenzyl)piperidin-4-yl)benzamide]
15 | 1000 to 10000 | COc1ccc(CN2CCC(NC(=O)c3cccc(OC4CCN(Cc5cnn(-c6ccccn6)c5)CC4)c3)CC2)cc1 [Compound 5-114, N-(1-(4-methoxybenzyl)piperidin-4-yl)-3-(1-((1-(pyridin-2-yl)-1H-pyrazol-4-yl)methyl)piperidin-4-yloxy)benzamide]
16 | < 1000 | N#Cc1ccc(CN2CCC(NC(=O)c3cccc(OC4CCN(c5ccc(C#N)cc5)CC4)c3)CC2)cc1 [Compound 5-115, N-(1-(4-cyanobenzyl)piperidin-4-yl)-3-(1-(4-cyanophenyl)piperidin-4-yloxy)benzamide]
17 | < 1000 | N#Cc1ccc(CN2CCC(NC(=O)c3cccc(OC4CCN(Cc5ccc(N6CCCC6)cc5)CC4)c3)CC2)cc1 [Compound 5-116, N-(1-(4-cyanobenzyl)piperidin-4-yl)-3-(1-(4-(pyrrolidin-1-yl)benzyl)piperidin-4-yloxy)benzamide]
18 | < 1000 | N#Cc1ccc(CN2CCC(NC(=O)c3cccc(OC4CCN(Cc5ccc(Oc6ccccc6)cc5)CC4)c3)CC2)cc1 [Compound 5-117, N-(1-(4-cyanobenzyl)piperidin-4-yl)-3-(1-(4-phenoxybenzyl)piperidin-4-yloxy)benzamide]
19 | < 1000 | N#Cc1ccc(CN2CCC(NC(=O)c3cccc(OC4CCN(Cc5ccc(-c6ccccn6)cc5)CC4)c3)CC2)cc1 [Compound 5-118, N-(1-(4-cyanobenzyl)piperidin-4-yl)-3-(1-(4-(pyridin-2-yl)benzyl)piperidin-4-yloxy)benzamide]
20 | < 1000 | N#Cc1ccc(CN2CCC(NC(=O)c3cccc(OC4CCN(Cc5ccc(-n6cccn6)cc5)CC4)c3)CC2)cc1 [Compound 5-119, 3-(l-(4-(lH-pyrazol-1-yl)benzyl)piperidin-4-yloxy)-N-(1-(4-cyanobenzyl)piperidin-4-yl)benzamide]
21 | < 1000 | N#Cc1ccc(CN2CCC(NC(=O)c3cccc(OC4CCN(Cc5ccc(C#N)c(F)c5)CC4)c3)CC2)cc1 [Compound 5-120, 3-(1-(4-cyano-3-fluorobenzyl)piperidin-4-yloxy)-N-(1-(4-cyanobenzyl)piperidin-4-yl)benzamide]
22 | < 1000 | CC(C)Oc1ccc(CN2CCC(Oc3cccc(C(=O)NC4CCN(Cc5ccc(C#N)cc5)CC4)c3)CC2)cc1 [Compound 5-121, N-(1-(4-cyanobenzyl)piperidin-4-yl)-3-(1-(4-isopropoxybenzyl)piperidin-4-yloxy)benzamide]
23 | < 1000 | N#Cc1ccc(CN2CCC(NC(=O)c3cccc(OC4CCN(Cc5cnn(-c6ccc(F)cc6)c5)CC4)c3)CC2)cc1 [Compound 5-122, N-(1-(4-cyanobenzyl)piperidin-4-yl)-3-(1-((1-(4-fluorophenyl)-1H-pyrazol-4-yl)methyl)piperidin-4-yloxy)benzamide]
24 | > 100000 | N#Cc1ccc(CN2CCC(NC(=O)c3cccc(OC4CCN(Cc5ccc(OC(F)(F)F)cc5)CC4)c3)CC2)cc1 [Compound 5-123, N-(1-(4-cyanobenzyl)piperidin-4-yl)-3-(1-(4-(trifluoromethoxy)benzyl)piperidin-4-yloxy)benzamide]
25 | < 1000 | N#Cc1ccc(CN2CCC(NC(=O)c3cccc(OC4CCN(Cc5ccc(C#N)cc5)CC4)c3)CC2)cc1 [Compound 5-124, N-(1-(4-cyanobenzyl)piperidin-4-yl)-3-(1-(4-cyanobenzyl)piperidin-4-yloxy)benzamide]
